Experimental data from patent publication US11491165B2 (Kinoxis Therapeutics Pty Ltd, priority 2016, dated 2022).

Tests used:
BALB/c mice = test: Murine social interaction test; format: in vivo, Mus musculus; details: male BALB/c mice, i.p., 10 min test 30 min after injection
Protocol: Example Testing Effect of WJ0679 on Murine Social Interaction (N=46)
Age: 6-7 weeks at testing
Vehicle: 88% isotonic saline, 10% DMSO, 2% tween 80
Route of administration: intraperitoneal (i.p.) injection
Mice were placed in the arena (40×40×40 cm) in weight and treatment matched pairs of unfamiliar mice for a 10 min test session, commencing 30 min after receiving their i.p. injection. The variables of interest were the time the mice spent in close physical contact with each other and the time each mouse spent engaged in active social investigation (sniffing the other mouse).

[1] = molecular target: T1, vasopressin 1a receptor (V1aR) (Homo sapiens, UniProt P37288); test: IP1 accumulation assay, V1aR-expressing HEK-293 cells (agonist and antagonist assessment); format: cell-based; details: for EC50: agonist assessment, IP1, 1 h; for IC50: antagonist assessment vs AVP 25 nM (~EC70), IP1
T1 construct: expressed in transfected cells

[2] = molecular target: T2, oxytocin receptor (OXTR), hOTR (Homo sapiens, UniProt P30559); test: Competition radioligand binding, [3H]-oxytocin, OTR-expressing HEK293 membranes; details: [3H]-oxytocin 10 nM, 90 min 4 °C
T2 construct: expressed in transfected cells
T2 sequence (P30559 1-389): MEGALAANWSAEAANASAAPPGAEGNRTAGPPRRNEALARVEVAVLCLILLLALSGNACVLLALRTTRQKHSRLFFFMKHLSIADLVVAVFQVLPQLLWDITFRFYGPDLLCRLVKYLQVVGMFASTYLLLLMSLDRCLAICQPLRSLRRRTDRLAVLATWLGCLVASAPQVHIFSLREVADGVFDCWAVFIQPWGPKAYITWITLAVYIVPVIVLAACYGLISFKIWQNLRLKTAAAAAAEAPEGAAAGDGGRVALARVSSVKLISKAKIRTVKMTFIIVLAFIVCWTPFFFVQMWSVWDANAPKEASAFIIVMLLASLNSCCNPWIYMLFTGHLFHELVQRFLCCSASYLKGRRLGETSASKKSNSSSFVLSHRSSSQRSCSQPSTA

[3] = molecular target: T1, vasopressin 1a receptor (V1aR); test: Competition radioligand binding, [3H]-vasopressin, V1aR-expressing HEK293 membranes; details: [3H]-vasopressin 2 nM, 90 min 4 °C
[4] = molecular target: T2, oxytocin receptor (OXTR), hOTR; test: IP1 accumulation assay, OTR-expressing HEK-293 cells (agonist and antagonist assessment); format: cell-based; details: for Emax: HEK293, read-out: OXTR Emax (% OXT); for EC50 (OXTR agonist potency, mean ± s.d.) / EC50: agonist assessment; for EC50 (OXTR agonist potency, mean ± s.d.) / IC50: IP1; for EC50: IP1, 1 h; for OV function: ratio of OXTR functional potency to V1aR functional potency, 'OT only' = function at OXTR only; for IC50: antagonist assessment vs OT 30 nM (~EC70)
Method in brief: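 Flp-In T-REx HEK-293 cells stably expressing untagged hOTR were induced with tetracycline for 48 h, then exposed 1 h to compound (1 nM-100 μM) alone (agonist mode) or with 30 nM OT (~EC70; antagonist mode). IP1 was measured by HTRF, expressed as % of OT-plus-vehicle and fitted to a 4-parameter logistic curve; n≥3 experiments in duplicate.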

T1 sequence (P37288 whole entry): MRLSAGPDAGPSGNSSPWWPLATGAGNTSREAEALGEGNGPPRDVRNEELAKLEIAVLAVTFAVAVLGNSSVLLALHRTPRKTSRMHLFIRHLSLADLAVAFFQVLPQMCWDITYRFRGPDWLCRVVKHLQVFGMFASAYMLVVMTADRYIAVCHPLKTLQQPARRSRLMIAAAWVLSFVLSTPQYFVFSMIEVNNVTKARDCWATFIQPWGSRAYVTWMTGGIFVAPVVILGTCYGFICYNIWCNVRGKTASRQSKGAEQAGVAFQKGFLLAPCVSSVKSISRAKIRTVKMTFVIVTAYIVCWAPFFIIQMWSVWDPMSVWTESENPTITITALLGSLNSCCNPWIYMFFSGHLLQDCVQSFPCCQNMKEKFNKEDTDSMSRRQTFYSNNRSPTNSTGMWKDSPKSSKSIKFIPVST

| melting point | EC50 [1] [nM] | IC50 [1] [nM] | Ki [2] [nM] | Ki [3] [nM] | Emax [4] [%] | EC50 (OXTR agonist potency, mean ± s.d.) [4] [nM] | EC50 [4] [nM] | OV function [4] | IC50 [4] [nM] | SMILES | time spent in close physical contact (huddling time) (BALB/c mice; all doses (1, 5, 20 mg/kg), most pronounced at 1 and 5 mg/kg, FIG. 1) | active social investigation time (BALB/c mice; doses of 1 and 20 mg/kg, FIG. 2) |
| --- | --- | --- | --- | --- | --- | --- | --- | --- | --- | --- | --- | --- |
| 265 °C (dec.) | > 10000 | 710 ± 267 | 149 ± 43.4 | 12.4 ± 2.4 | 9.54 | 238.8 ± 38.7 | 85.3 ± 26.5 | 0.12 |  | Cc1ccc(C(=O)N2Cc3cnn(C)c3Nc3ccccc32)cc1 [WJ0653, (1-Methyl-4,10-dihydrobenzo[b]pyrazolo[3,4-e][1,4]diazepin-5 (1H)-yl)(p-tolyl)methanone] |  |  |
| 296 to 298 °C (dec.) | > 10000 | 462 ± 136 | 272 ± 87.6 | 24 ± 3.4 | 8.14 | 203.8 ± 54.8 | 197 ± 60.3 | 0.43 |  | COc1ccc(C(=O)N2Cc3cnn(C)c3Nc3ccccc32)cc1 [WJ0661, (4-Methoxyphenyl)(1-methyl-4,10-dihydrobenzo[b]pyrazolo[3,4-e][1,4]diazepin-5 (1H)-yl)methanone] |  |  |
| 207 to 209 °C | > 10000 | 1590 ± 486 | 176 ± 41 | 35 ± 5 |  |  | > 10000 | 0.11 | 179 | Cn1ncc2c1Nc1ccccc1N(C(=O)c1ccc(OCc3ccccc3)cc1)C2 [BzE, (4-(benzyloxy)phenyl)(1-methyl-4,10-dihydrobenzo[b]pyrazolo[3,4-e][1,4]diazepin-5 (1H)-yl)methanone] |  |  |
| 243 to 246 °C | > 10000 | 1670 ± 299 | 519 ± 110 | 174 ± 57.4 | 10.2 | 255 ± 59.7 | 152 ± 47.3 | 0.09 |  | Cn1ncc2c1Nc1ccccc1N(C(=O)c1ccc(Cl)cc1)C2 [WJ0755, (4-Chlorophenyl)(1-methyl-4,10-dihydrobenzo[b]pyrazolo[3,4-e][1,4]diazepin-5 (1H)-yl)methanone] |  |  |

The next lines start with the compound.

| SMILES | melting point | EC50 [1] [nM] | IC50 [1] [nM] | Ki [2] [nM] | Ki [3] [nM] | Emax [4] [%] | EC50 (OXTR agonist potency, mean ± s.d.) [4] [nM] | EC50 [4] [nM] | OV function [4] | IC50 [4] [nM] | time spent in close physical contact (huddling time) (BALB/c mice; all doses (1, 5, 20 mg/kg), most pronounced at 1 and 5 mg/kg, FIG. 1) | active social investigation time (BALB/c mice; doses of 1 and 20 mg/kg, FIG. 2) |
| --- | --- | --- | --- | --- | --- | --- | --- | --- | --- | --- | --- | --- |
| Cn1ncc2c1Nc1ccccc1N(C(=O)c1cccc(F)c1)C2 [WJ0679, (3-Fluorophenyl)(1-methyl-4,10-dihydrobenzo[b]pyrazolo[3,4-e][1,4]diazepin-5 (1H)-yl)methanone] | 286 to 288 °C (dec.) | > 10000 | 2200 ± 511 | 422 ± 129 | 105 ± 10.5 | 12.6 | 316 ± 108 | 406 ± 74 | 0.18 |  | significantly increased | significantly increased |
| Cn1ncc2c1Nc1ccccc1N(S(=O)(=O)c1ccc(C(F)(F)F)cc1)C2 [WJ0639, 1-Methyl-5-((4-(trifluoromethyl)phenyl)sulfonyl)-1,4,5,10-tetrahydrobenzo[b]pyrazolo[3,4-e][1,4]diazepine] | 203 to 205 °C | > 10000 | > 10000 | > 10000 | > 10000 |  |  | > 10000 |  | > 10000 |  |  |
| Cc1ccc(C(=O)N2Cc3cnn(C)c3Nc3ccccc32)cc1C [WJ5103, (3,4-Dimethylphenyl)(1-methyl-4,10-dihydrobenzo[b]pyrazolo[3,4-e][1,4]diazepin-5 (1H)-yl)methanone] | 254 to 256 °C (dec.) | > 10000 | 346 ± 90.9 | 117 ± 12.4 | 14 ± 2 | 5.87 | 147.0 ± 64.3 | 109 ± 17.7 | 0.37 |  |  |  |
